Test results: ChEMBL document CHEMBL1697692, “Developing structure-activity relationships for the prediction of hepatotoxicity” (Chem Res Toxicol, 2010)

What follows are compounds tested on Hepatotoxicity (assay: Literature-mined public compounds from Greene et al multi-species hepatotoxicity modelling dataset).
For `CN1Cc2c(N)cccc2C(c2ccccc2)C1` (stereo not given) [NOMIFENSINE], the Hepatotoxicity was “HH: Evidence of human hepatotoxicity”. For `C#CC1(O)CC[C@H]2[C@@H]3CCC4=CC(=O)CC[C@@H]4[C@H]3CC[C@@]21CC` (stereo not given in full) [NORGESTREL], the Hepatotoxicity was “HH: Evidence of human hepatotoxicity”. `CNCCC=C1c2ccccc2CCc2ccccc21.Cl` [NORTRIPTYLINE HYDROCHLORIDE] was tested, and the Hepatotoxicity was “HH: Evidence of human hepatotoxicity”. In the case of `CO[C@@H]1[C@@H](OC(N)=O)[C@@H](O)[C@H](Oc2ccc3c(O)c(NC(=O)c4ccc(O)c(CC=C(C)C)c4)c(=O)oc3c2C)OC1(C)C` [NOVOBIOCIN], the Hepatotoxicity is reported as “HH: Evidence of human hepatotoxicity”. In the case of `CCCCC(CC)COC(=O)C=Cc1ccc(OC)cc1` (stereo not given) [OCTINOXATE], the Hepatotoxicity is reported as “HH: Evidence of human hepatotoxicity”. `Cc1ccccc1C(OCCN(C)C)c1ccccc1.O=C(O)CC(O)(CC(=O)O)C(=O)O` (stereo not given) [ORPHENADRINE CITRATE] was tested, and the Hepatotoxicity was “NE: No evidence of hepatotoxicity in any species”. For `O=C(O)CCc1nc(-c2ccccc2)c(-c2ccccc2)o1` [OXAPROZIN], the Hepatotoxicity was “HH: Evidence of human hepatotoxicity”. In the case of `CCCOc1ccc2nc(NC(=O)OC)[nH]c2c1` [OXIBENDAZOLE], the Hepatotoxicity is reported as “AH: Evidence for animal hepatotoxicity but not tested in humans”. For `CC[N+](C)(CC)CCOC(=O)C(O)(c1ccccc1)C1CCCCC1` (stereo not given) [OXYPHENONIUM], the Hepatotoxicity was “NE: No evidence of hepatotoxicity in any species”. For `O=S(=O)(O)O.Oc1cccc2cccnc12.Oc1cccc2cccnc12` [OXYQUINOLINE SULFATE], the Hepatotoxicity was “HH: Evidence of human hepatotoxicity”. In the case of `CC(=O)O[C@H]1C(=O)[C@@]2(C)[C@H]([C@H](OC(=O)c3ccccc3)[C@]3(O)C[C@H](OC(=O)[C@H](O)[C@@H](NC(=O)c4ccccc4)c4ccccc4)C(C)=C1C3(C)C)[C@]1(OC(C)=O)CO[C@@H]1C[C@@H]2O` [PACLITAXEL], the Hepatotoxicity is reported as “HH: Evidence of human hepatotoxicity”. In the case of `NCCC(O)(P(=O)(O)O)P(=O)(O)O` [PAMIDRONIC ACID], the Hepatotoxicity is reported as “NE: No evidence of hepatotoxicity in any species”. `C#CCN(C)Cc1ccccc1` [PARGYLINE] was tested, and the Hepatotoxicity was “NE: No evidence of hepatotoxicity in any species”. For `NC[C@@H]1O[C@H](O[C@H]2[C@@H](O)[C@H](O[C@@H]3[C@@H](O)[C@H](N)C[C@H](N)[C@H]3O[C@H]3O[C@H](CO)[C@@H](O)[C@H](O)[C@H]3N)O[C@@H]2CO)[C@H](N)[C@@H](O)[C@@H]1O.O=S(=O)(O)O` [PAROMOMYCIN SULFATE], the Hepatotoxicity was “NE: No evidence of hepatotoxicity in any species”. `Fc1ccc([C@@H]2CCNC[C@H]2COc2ccc3c(c2)OCO3)cc1` [PAROXETINE] was tested, and the Hepatotoxicity was “WE: Weak evidence (<10 case reports) of human hepatotoxicity”. With `NC1=NC(=O)C(c2ccccc2)O1` (stereo not given) [PEMOLINE] the Hepatotoxicity was “HH: Evidence of human hepatotoxicity”. With `CC(C)(C)NC[C@H](O)COc1ccccc1C1CCCC1.CC(C)(C)NC[C@H](O)COc1ccccc1C1CCCC1.O=S(=O)(O)O` [PENBUTOLOL SULFATE] the Hepatotoxicity was “HH: Evidence of human hepatotoxicity”. `CC1(C)S[C@@H]2[C@H](NC(=O)Cc3ccccc3)C(=O)N2[C@H]1C(=O)[O-].[Na+]` [PENICILLIN G SODIUM] was tested, and the Hepatotoxicity was “HH: Evidence of human hepatotoxicity”. With `C1CCC(C(CC2CCCCN2)C2CCCCC2)CC1` (stereo not given) [PERHEXILINE] the Hepatotoxicity was “HH: Evidence of human hepatotoxicity”. `CC1(C)C(C=C(Cl)Cl)C1C(=O)OCc1cccc(Oc2ccccc2)c1` (stereo not given) [PERMETHRIN] was tested, and the Hepatotoxicity was “NE: No evidence of hepatotoxicity in any species”. For `CCOc1ccc(NC(C)=O)cc1` [PHENACETIN], the Hepatotoxicity was “HH: Evidence of human hepatotoxicity”. With `Cl.Nc1ccc(/N=N/c2ccccc2)c(N)n1` [PHENAZOPYRIDINE HYDROCHLORIDE] the Hepatotoxicity was “HH: Evidence of human hepatotoxicity”. For `NNCCc1ccccc1` [PHENELZINE], the Hepatotoxicity was “NE: No evidence of hepatotoxicity in any species”. With `c1ccc2c(c1)Nc1ccccc1S2` [PHENOTHIAZINE] the Hepatotoxicity was “HH: Evidence of human hepatotoxicity”. For `CC(COc1ccccc1)N(CCCl)Cc1ccccc1.Cl` (stereo not given) [PHENOXYBENZAMINE HYDROCHLORIDE], the Hepatotoxicity was “NE: No evidence of hepatotoxicity in any species”.
